Literature values as cited in US20170281607A1, “PHARMACEUTICAL COMPOSITIONS AND METHODS FOR THE TREATMENT OF DIABETES” (University of Limerick, priority 2016, published 2017).

Settings: in vivo

COc1ccc2c(c1)[nH]c1c(C)nccc12 [harmine, 7-Methoxy-1-methyl-9H-pyrido[3,4-b]indole]
half-life: 1 to 3 h
